Each structure is given as a SMILES string. Where two headings read alike, the source gives them in different places. Numbered stars: 1 amine (or outer) side, 2 acyl side, 3 side chain; on linkers, the order of the positions; unused ones are H or OH. Square brackets hold non-standard residues; d marks the D form. Side chains are listed from the residue outwards. Peptide text beside a SMILES is read from it. * marks the point of attachment. C16 diacid = O=C(O)CCCCCCCCCCCCCCC(=O)*; γGlu = O=C(O)[C@H](CCC(=O)[*:2])N[*:1]; Palmitoyl = CCCCCCCCCCCCCCCC(=O)*; αMeF = C[C@](N)(Cc1ccccc1)C(=O)O; αMeK = C[C@](N)(CCCCN)C(=O)O; Lauroyl = CCCCCCCCCCCC(=O)*; αMeS = C[C@](N)(CO)C(=O)O; AEEA = NCCOCCOCC(=O)O; Aib = CC(C)(N)C(=O)O

Format in all cases: cell-based
The target in experiment [1] is T1, human GLP-1 receptor (GLP-1R) (Homo sapiens, UniProt P43220).
T1 construct: expressed in transfected cells
Description: cAMP assay, human GLP-1R cells. The method in brief:
(§1)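 Peptide-stimulated cAMP measured by two-step HTRF after a 30 min room-temperature incubation with receptor-expressing cells (hGLP-1R, hGIPR at 1×10^5 cells/ml; hGCGR at 2×10^5 cells/ml). Duplicate dilutions; EC50 from 4-parameter logistic fit of % Delta F.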

In experiment [2] the target is T2, human glucagon receptor (GCGR) (Homo sapiens, UniProt P47871).
T2 construct: expressed in transfected cells
Description: cAMP assay, human GCGR cells. The method in brief:
as §1
Background: Cyclic AMP is a second messenger, typically raised through Gs and lowered through Gi signalling.

Experiment [3] addresses T3, human glucose-dependent insulinotropic peptide receptor (GIPR) (Homo sapiens, UniProt P48546).
T3 construct: expressed in transfected cells
T3 sequence (P48546 22-466): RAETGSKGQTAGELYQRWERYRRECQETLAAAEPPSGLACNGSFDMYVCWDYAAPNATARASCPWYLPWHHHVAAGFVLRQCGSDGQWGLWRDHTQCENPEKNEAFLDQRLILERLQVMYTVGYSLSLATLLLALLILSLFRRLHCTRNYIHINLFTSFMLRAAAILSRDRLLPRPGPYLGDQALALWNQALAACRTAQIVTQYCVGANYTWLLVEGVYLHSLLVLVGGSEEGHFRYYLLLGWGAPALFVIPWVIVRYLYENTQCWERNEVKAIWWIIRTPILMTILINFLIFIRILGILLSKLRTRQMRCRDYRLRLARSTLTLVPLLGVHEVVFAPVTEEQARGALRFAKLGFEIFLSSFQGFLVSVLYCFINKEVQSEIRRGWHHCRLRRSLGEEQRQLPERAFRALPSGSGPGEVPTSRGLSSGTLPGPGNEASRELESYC
Description: cAMP assay, human GIPR cells. The procedure, abridged:
as §1

Setting [4] is: first run (n1), cAMP activity, read-out: Primary assay EC50 GLP-1R n1.
[5] abbreviates: mean of n1 and n2, read-out: Mean pM GLP-1R.
Where [6] appears, read: second run (n2), cAMP activity, read-out: Primary assay EC50 GLP-1R n2.
The mark [7] stands for this setting: first run (n1), cAMP activity of substituted and mono-lipidated peptides, read-out: Primary assay EC50 Gluc-R.
[8] abbreviates: second run (n2), cAMP activity, read-out: Primary assay EC50 Gluc-R.
Where [9] appears, read: first run (n1), cAMP activity, read-out: Primary assay EC50 GIP-R.
The mark [10] stands for this setting: second run (n2), cAMP activity, read-out: Primary assay EC50 GIP-R.

T2 sequence (P47871 26-477): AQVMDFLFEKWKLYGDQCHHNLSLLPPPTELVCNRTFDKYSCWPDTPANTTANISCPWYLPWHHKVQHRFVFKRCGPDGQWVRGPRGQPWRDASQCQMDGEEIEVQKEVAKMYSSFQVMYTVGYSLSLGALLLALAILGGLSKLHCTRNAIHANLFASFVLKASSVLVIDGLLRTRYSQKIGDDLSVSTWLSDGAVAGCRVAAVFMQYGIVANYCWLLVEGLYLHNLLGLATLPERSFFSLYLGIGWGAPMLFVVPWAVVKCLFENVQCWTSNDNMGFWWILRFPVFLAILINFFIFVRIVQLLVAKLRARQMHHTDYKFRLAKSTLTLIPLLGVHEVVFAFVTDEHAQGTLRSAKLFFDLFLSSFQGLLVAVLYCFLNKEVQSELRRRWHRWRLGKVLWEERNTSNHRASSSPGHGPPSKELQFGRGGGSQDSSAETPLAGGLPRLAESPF
T1 sequence (P43220 24-463): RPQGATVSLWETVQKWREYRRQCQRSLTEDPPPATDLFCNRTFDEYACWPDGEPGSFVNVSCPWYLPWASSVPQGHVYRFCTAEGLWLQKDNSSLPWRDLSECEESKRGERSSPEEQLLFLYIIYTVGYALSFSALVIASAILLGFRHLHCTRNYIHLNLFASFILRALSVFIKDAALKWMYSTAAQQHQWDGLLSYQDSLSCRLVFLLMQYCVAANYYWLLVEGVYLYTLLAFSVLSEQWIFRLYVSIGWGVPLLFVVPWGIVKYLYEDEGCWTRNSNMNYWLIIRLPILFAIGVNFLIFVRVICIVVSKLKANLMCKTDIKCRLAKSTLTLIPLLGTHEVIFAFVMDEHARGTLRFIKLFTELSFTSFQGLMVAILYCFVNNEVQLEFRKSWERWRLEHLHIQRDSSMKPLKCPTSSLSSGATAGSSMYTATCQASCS

As to `CC[C@H](C)[C@H](NC(=O)[C@](C)(Cc1ccccc1)NC(=O)[C@H](CCC(=O)O)NC(=O)[C@](C)(CCCCN)NC(=O)[C@H](C)NC(=O)[C@H](C)NC(=O)[C@H](CCC(=O)O)NC(=O)CNC(=O)[C@H](CCC(=O)O)NC(=O)[C@H](CC(C)C)NC(=O)[C@](C)(Cc1ccccc1)NC(=O)[C@H](CO)NC(=O)[C@](C)(CO)NC(=O)[C@@H](NC(=O)[C@H](CC(=O)O)NC(=O)[C@H](CO)NC(=O)[C@@H](NC(=O)[C@](C)(Cc1ccccc1)NC(=O)[C@H](CO)NC(=O)CNC(=O)[C@H](CCC(=O)O)NC(=O)C(C)(C)NC(=O)[C@@H](N)Cc1c[nH]cn1)[C@@H](C)O)C(C)C)C(=O)N[C@@H](C)C(=O)N[C@@](C)(Cc1ccccc1)C(=O)N[C@H](C(=O)N[C@H](C(=O)N[C@@H](CCCCNC(=O)CCCCCNC(=O)CCCCCCCCCCCCCCCCC(=O)O)C(=O)NCC(=O)NCC(N)=O)C(C)C)C(C)C` [compound 194], the EC50 in experiment [1] (setting [4]) was 240 pM; in experiment [1] (setting [5]), 154 pM; in experiment [1] (setting [6]), 68 pM; in experiment [2] (setting [7]), at least 28 nM; in experiment [2] (setting [8]), at least 28 nM; in experiment [3] (setting [9]), at least 28 nM. In addition, in experiment [3] (setting [10]), the EC50 was at least 28 nM.

Regarding `CCCCCCCCCCCC(=O)N[C@@H](CCC(=O)NCCOCCOCC(=O)NCCOCCOCC(=O)NCCCC[C@H](NC(=O)CNC(=O)[C@H](CCC(=O)O)NC(=O)[C@H](CC(C)C)NC(=O)[C@H](CCCCNC(=O)COCCOCCNC(=O)COCCOCCNC(=O)CC[C@H](NC(=O)CCCCCCCCCCC)C(=O)O)NC(=O)[C@H](CO)NC(=O)[C@](C)(CO)NC(=O)[C@@H](NC(=O)[C@H](CC(=O)O)NC(=O)[C@H](CO)NC(=O)[C@@H](NC(=O)[C@](C)(Cc1ccccc1)NC(=O)[C@H](CO)NC(=O)CNC(=O)[C@H](CCC(=O)O)NC(=O)C(C)(C)NC(=O)[C@@H](N)Cc1c[nH]cn1)[C@@H](C)O)C(C)C)C(=O)N[C@@H](C)C(=O)N[C@@H](C)C(=O)N[C@@](C)(CCCCN)C(=O)N[C@@H](CCC(=O)O)C(=O)N[C@@H](Cc1ccccc1)C(=O)N[C@H](C(=O)N[C@@H](CCCCNC(=O)COCCOCCNC(=O)COCCOCCNC(=O)CC[C@H](NC(=O)CCCCCCCCCCC)C(=O)O)C(=O)N[C@@H](Cc1ccccc1)C(=O)N[C@H](C(=O)N[C@H](C(=O)N[C@@H](CCC(=O)O)C(=O)NCC(=O)NCC(N)=O)C(C)C)C(C)C)[C@@H](C)CC)C(=O)O` [compound 448] (H-H[Aib]EGS[αMeF]TSDV[αMeS]SK([AEEA-AEEA-γGlu-Lauroyl])LEGK([AEEA-AEEA-γGlu-Lauroyl])AA[αMeK]EFIK([AEEA-AEEA-γGlu-Lauroyl])FVVEGG-NH2), the EC50 worked out at 92.4 pM in experiment [1] (tris-lipidated peptides, mean of n1 and n2, read-out: Primary assay EC50 Mean pM GLP-1R); 78.8 pM in experiment [1] (tris-lipidated peptides, replicate n1, read-out: Primary assay EC50 GLP-1R n1); 106 pM in experiment [1] (tris-lipidated peptides, replicate n2, read-out: Primary assay EC50 GLP-1R n2); 19.9 nM in experiment [2] (tris-lipidated peptides, second replicate, read-out: Primary assay EC50 Gluc-R (n2)); 19.9 nM in experiment [3] (tris-lipidated peptides, first replicate, read-out: Primary assay EC50 GIP-R (n1)).

As to `CC[C@H](C)[C@H](NC(=O)[C@](C)(Cc1ccccc1)NC(=O)[C@H](CCC(=O)O)NC(=O)[C@](C)(CCCCN)NC(=O)[C@H](C)NC(=O)[C@H](C)NC(=O)[C@H](CCC(=O)O)NC(=O)CNC(=O)[C@H](CCC(=O)O)NC(=O)[C@H](CC(C)C)NC(=O)[C@](C)(Cc1ccccc1)NC(=O)[C@H](CO)NC(=O)[C@](C)(CO)NC(=O)[C@@H](NC(=O)[C@H](CC(=O)O)NC(=O)[C@H](CO)NC(=O)[C@@H](NC(=O)[C@](C)(Cc1ccccc1)NC(=O)[C@H](CO)NC(=O)CNC(=O)[C@H](CCC(=O)O)NC(=O)C(C)(C)NC(=O)[C@@H](N)Cc1c[nH]cn1)[C@@H](C)O)C(C)C)C(=O)N[C@@H](C)C(=O)N[C@@](C)(Cc1ccccc1)C(=O)N[C@H](C(=O)N[C@H](C(=O)N[C@@H](CCCCNC(=O)CC[C@H](NC(=O)CC[C@H](NC(=O)CC[C@H](NC(=O)CCCCCCCCCCCCCCCCC(=O)O)C(=O)O)C(=O)O)C(=O)O)C(=O)NCC(=O)NCC(N)=O)C(C)C)C(C)C` [compound 193], the EC50 in experiment [1] (setting [4]) was 330 pM; in experiment [1] (setting [5]) it was 213 pM; in experiment [1] (setting [6]), 95 pM; in experiment [2] (setting [7]), at least 26 nM; in experiment [2] (setting [8]), at least 26 nM; in experiment [3] (setting [9]), at least 26 nM. Further, in experiment [3] (setting [10]), the EC50 is at least 26 nM.

`CCCCCCCCCCCCCCCC(=O)N[C@@H](CCC(=O)NCCCC[C@H](NC(=O)[C@H](C)NC(=O)[C@H](C)NC(=O)[C@H](CCC(=O)O)NC(=O)CNC(=O)[C@H](CCC(=O)O)NC(=O)[C@H](CC(C)C)NC(=O)[C@](C)(Cc1ccccc1)NC(=O)[C@H](CO)NC(=O)[C@](C)(CO)NC(=O)[C@@H](NC(=O)[C@H](CC(=O)O)NC(=O)[C@H](CC(=O)O)NC(=O)[C@@H](NC(=O)[C@](C)(Cc1ccccc1)NC(=O)[C@H](CO)NC(=O)CNC(=O)[C@H](CCC(=O)O)NC(=O)C(C)(C)NC(=O)[C@@H](N)Cc1c[nH]cn1)[C@@H](C)O)C(C)C)C(=O)N[C@@H](CCC(=O)O)C(=O)N[C@@](C)(Cc1ccccc1)C(=O)N[C@H](C(=O)N[C@@H](C)C(=O)N[C@@](C)(Cc1ccccc1)C(=O)N[C@H](C(=O)N[C@H](C(=O)N[C@@](C)(CCCCN)C(=O)NCC(=O)NCC(N)=O)C(C)C)C(C)C)[C@@H](C)CC)C(=O)O` [compound 37] (H-H[Aib]EGS[αMeF]TDDV[αMeS]S[αMeF]LEGEAAK([γGlu-Palmitoyl])E[αMeF]IA[αMeF]VV[αMeK]GG-NH2): the EC50 was 7300 pM in experiment [1] (cAMP assay, first determination (n1), read-out: Primary assay EC50 GLP-1R n1); 1700 pM in experiment [1] (cAMP assay, second determination (n2), read-out: Primary assay EC50 GLP-1R n2); 4500 pM in experiment [1] (setting [5]); at least 92 nM in experiment [2] (cAMP assay, first determination (n1), read-out: Primary assay EC50 Gluc-R (n1)); at least 28 nM in experiment [2] (cAMP assay, second determination (n2), read-out: Primary assay EC50 Gluc-R (n2)); at least 92 nM in experiment [3] (cAMP assay, first determination (n1), read-out: Primary assay EC50 GIP-R (n1)). Further, in experiment [3] (cAMP assay, second determination (n2), read-out: Primary assay EC50 GIP-R (n2)), the EC50 was at least 28 nM.

With `CC[C@H](C)[C@H](NC(=O)[C@H](Cc1ccccc1)NC(=O)[C@H](CCC(=O)O)NC(=O)[C@](C)(CCCCN)NC(=O)[C@H](C)NC(=O)[C@H](C)NC(=O)[C@H](CCC(=O)O)NC(=O)CNC(=O)[C@H](CCC(=O)O)NC(=O)[C@H](CC(C)C)NC(=O)[C@H](Cc1ccc(O)cc1)NC(=O)[C@H](CO)NC(=O)[C@H](CO)NC(=O)[C@H](CCCCNC(=O)COCCOCCNC(=O)COCCOCCNC(=O)CC[C@H](NC(=O)CCCCCCCCCCCCCCC(=O)O)C(=O)O)NC(=O)[C@H](CC(=O)O)NC(=O)[C@H](CO)NC(=O)[C@@H](NC(=O)[C@](C)(Cc1ccccc1)NC(=O)[C@H](CO)NC(=O)CNC(=O)[C@H](CCC(=O)O)NC(=O)C(C)(C)NC(=O)[C@@H](N)Cc1c[nH]cn1)[C@@H](C)O)C(=O)N[C@@H](C)C(=O)N[C@@H](CCCCNC(=O)COCCOCCNC(=O)COCCOCCNC(=O)CC[C@H](NC(=O)CCCCCCCCCCCCCCC(=O)O)C(=O)O)C(=O)N[C@H](C(=O)N[C@H](C(=O)N[C@@H](CCC(=O)O)C(=O)NCC(=O)NCC(N)=O)C(C)C)C(C)C` [compound 260] (H-H[Aib]EGS[αMeF]TSDK([AEEA-AEEA-γGlu-C16 diacid])SSYLEGEAA[αMeK]EFIAK([AEEA-AEEA-γGlu-C16 diacid])VVEGG-NH2; N-terminus assumed), the EC50 in experiment [1] (bis-lipidated peptides, mean of n1 and n2, read-out: Primary assay EC50 Mean pM GLP-1R) is 388 pM; in experiment [1] (bis-lipidated peptides, replicate n1, read-out: Primary assay EC50 GLP-1R n1), 334 pM; in experiment [1] (bis-lipidated peptides, replicate n2, read-out: Primary assay EC50 GLP-1R n2), 443 pM; in experiment [2] (bis-lipidated peptides, first replicate, read-out: Primary assay EC50 Gluc-R (n1)), at least 21.9 nM; in experiment [3] (bis-lipidated peptides, first replicate, read-out: Primary assay EC50 GIP-R (n1)), at least 21.9 nM.

(Values after patent publication US10414811B2, “Protease-resistant lipidated GLP-1 analogs” (MEDIMMUNE LIMITED, priority 2015, dated 2019).)
